Experimental data from patent publication EP0980241B1 (Pfizer Products Inc., priority 1997, dated 1999).
Converted amounts (≈) assume the structure as drawn. Structures can show the parent of a compound that is named as a salt.

Tests used:
[1] = Precipitation studies: sertraline base solution in vehicle added to 0.1 N HCl or phosphate buffered saline pH 5.8; type: physicochemical
Description: Solution (a) is a simulated gastric fluid, and solution (b) is a simulated intestinal fluid.
PEG-400 is miscible with aqueous media, while Capmul® -MCM and safflower oil are not. One milliliter of the test solution was added to 10 mL of (a) 0.1 N HCl solution and (b) phosphate buffered saline (PBS) pH 5.8 and was stirred vigorously.
• Mobile phase: per liter of mobile phase: 270 mL of tetrahydrofuran, 230 mL of methanol and 400 mL of buffer. The buffer consisted of 25 mM triethylamine phosphate. It was prepared by adding 1.7 mL of phosphoric acid and 3.5 mL of tirethylamine to 1 liter of water.

[2] = Dilution of PEG-400 or polysorbate-80 solution of sertraline base into 0.9% NaCl (precipitation test); type: physicochemical; settings: for Observed Concentration after Dilution in Saline, after 15 min / Observed Concentration after Dilution in Saline, after 2 hr: 1 ml into 15 ml 0.9% NaCl pH 4.2
Description: One ml of this test solution was added to 15 ml normal saline (0.9% NaCl, pH 4.2), and was stirred vigorously. […]

[3] = physchem
[4] = not given; remark: listed apart in the source
[5] = in vivo
[6] = known oral immediate-release dosage forms; cited from earlier work
[7] = Chloride-induced gelling of saturated aqueous sertraline salt solutions; type: physicochemical
[8] = PEG-400, 50 mgA/ml in vehicle, expected 3.1
[9] = PEG-400, 100 mgA/ml in vehicle, expected 6.25
[10] = Polysorbate-80, 50 mgA/ml in vehicle, expected 3.1
[11] = Polysorbate-80, 100 mgA/ml in vehicle, expected 6.25

CN[C@H]1CC[C@@H](c2ccc(Cl)c(Cl)c2)c2ccccc21 [Free base, sertraline free base]
Concentration of sertraline in non-aqueous layer ([1]; Capmul MCM 50 mgA/mL, 1 mL into 10 mL 0.1 N HCl, 15 minutes): 44 mgA/ mL
Concentration of sertraline in aqueous layer ([1]; Capmul MCM 50 mgA/mL, 1 mL into 10 mL 0.1 N HCl, 15 minutes, expected 5.00): 0.38 mgA/ mL
Concentration of sertraline in non-aqueous layer ([1]; Capmul MCM 50 mgA/mL, 1 mL into 10 mL 0.1 N HCl, 120 minutes): 44.2 mgA/ mL
Concentration of sertraline in aqueous layer ([1]; Capmul MCM 50 mgA/mL, 1 mL into 10 mL 0.1 N HCl, 120 minutes, expected 5.00): 0.31 mgA/ mL
Concentration of sertraline in non-aqueous layer ([1]; Capmul MCM 50 mgA/mL, 1 mL into 10 mL Phosphate buffered saline pH 5.8, 15 minutes): 48 mgA/ mL
Concentration of sertraline in aqueous layer ([1]; Capmul MCM 50 mgA/mL, 1 mL into 10 mL Phosphate buffered saline pH 5.8, 15 minutes, expected 5.00): 0.18 mgA/ mL
Concentration of sertraline in non-aqueous layer ([1]; Capmul MCM 50 mgA/mL, 1 mL into 10 mL Phosphate buffered saline pH 5.8, 120 minutes): 48.6 mgA/ mL
Concentration of sertraline in aqueous layer ([1]; Capmul MCM 50 mgA/mL, 1 mL into 10 mL Phosphate buffered saline pH 5.8, 120 minutes, expected 5.00): 0.16 mgA/ mL
precipitation of sertraline ([1]; Capmul-MCM vehicle): essentially no precipitation
portion of sertraline that remains in solution ([1]; Capmul-MCM vehicle, 0.1 N HCl or phosphate buffered saline): > 95 % of added amount
Concentration of sertraline in aqueous layer ([1]; PEG 400 50 mgA/mL, 1 mL into 10 mL 0.1 N HCl, 15 minutes, expected 4.55): 0.6 mgA/ mL
Concentration of sertraline in aqueous layer ([1]; PEG 400 50 mgA/mL, 1 mL into 10 mL 0.1 N HCl, 120 minutes, expected 4.55): 0.35 mgA/ mL
Concentration of sertraline in aqueous layer ([1]; PEG 400 50 mgA/mL, 1 mL into 10 mL Phosphate buffered saline pH 5.8, 15 minutes, expected 4.55): 0.16 mgA/ mL
Concentration of sertraline in aqueous layer ([1]; PEG 400 50 mgA/mL, 1 mL into 10 mL Phosphate buffered saline pH 5.8, 120 minutes, expected 4.55): 0.12 mgA/ mL
precipitation of sertraline ([1]; PEG 400 solution into either 0.1 N HCl or phosphate buffered saline): precipitation of a large proportion of sertraline
Concentration of sertraline in non-aqueous layer ([1]; Safflower oil 50 mgA/mL, 1 mL into 10 mL 0.1 N HCl, 15 minutes): 4.8 mgA/ mL
Concentration of sertraline in aqueous layer ([1]; Safflower oil 50 mgA/mL, 1 mL into 10 mL 0.1 N HCl, 15 minutes, expected 5.00): 0.48 mgA/ mL
Concentration of sertraline in non-aqueous layer ([1]; Safflower oil 50 mgA/mL, 1 mL into 10 mL 0.1 N HCl, 120 minutes): 3.2 mgA/ mL
Concentration of sertraline in aqueous layer ([1]; Safflower oil 50 mgA/mL, 1 mL into 10 mL 0.1 N HCl, 120 minutes, expected 5.00): 0.48 mgA/ mL
Concentration of sertraline in non-aqueous layer ([1]; Safflower oil 50 mgA/mL, 1 mL into 10 mL Phosphate buffered saline pH 5.8, 15 minutes): 45 mgA/ mL
Concentration of sertraline in aqueous layer ([1]; Safflower oil 50 mgA/mL, 1 mL into 10 mL Phosphate buffered saline pH 5.8, 15 minutes, expected 5.00): 0.19 mgA/ mL
Concentration of sertraline in non-aqueous layer ([1]; Safflower oil 50 mgA/mL, 1 mL into 10 mL Phosphate buffered saline pH 5.8, 120 minutes): 44.6 mgA/ mL
Concentration of sertraline in aqueous layer ([1]; Safflower oil 50 mgA/mL, 1 mL into 10 mL Phosphate buffered saline pH 5.8, 120 minutes, expected 5.00): 0.19 mgA/ mL
precipitation of sertraline ([1]; safflower oil solution added to phosphate buffered saline): little or no precipitation
precipitation of sertraline ([1]; safflower oil vehicle, in the presence of 0.1N HCl): 81%
Observed Concentration after Dilution in Saline, after 15 min [2, 8]: 0.9 mgA/ml
Observed Concentration after Dilution in Saline, after 2 hr [2, 8]: 2.1 mgA/ml
Observed Concentration after Dilution in Saline, after 15 min [2, 9]: 0.7 mgA/ml
Observed Concentration after Dilution in Saline, after 2 hr [2, 9]: 1.8 mgA/ml
Precipitation upon addition to a NaCl solution ([2]; PEG-400 solution): a portion of the sertraline precipitates
Observed Concentration after Dilution in Saline, after 15 min [2, 10]: 3.1 mgA/ml
Observed Concentration after Dilution in Saline, after 2 hr [2, 10]: 3.1 mgA/ml
Observed Concentration after Dilution in Saline, after 15 min [2, 11]: 6.25 mgA/ml
Observed Concentration after Dilution in Saline, after 2 hr [2, 11]: 6.25 mgA/ml
Precipitation upon addition to a NaCl solution ([2]; Polysorbate-80 solution): no precipitation occurs
solubility ([3]; polysorbate-80, organic solvent or mixture): ~102 mg/mL (≈ 333 mM)
Equilibrium solubility in Capmul-®MCM (capmul-mcm): >50 mgA/ml
Equilibrium solubility in Captex® 200 (captex 200): >50 mgA/ml
Equilibrium solubility in Migloyol® 810 (miglyol 810): >50 mgA/ml
Equilibrium solubility in Oleic acid (oleic acid): >50 mgA/ml
Equilibrium solubility in Olive oil: >50 mgA/ml
Equilibrium solubility in Safflower oil: >50 mgA/ml

CN[C@H]1CC[C@@H](c2ccc(Cl)c(Cl)c2)c2ccccc21 [Hydrochloride, sertraline hydrochloride]
Solubility in Polysorbate-80 [4]: <14 mgA/ml
solubility ([3]; capmul-mcm, organic solvent or mixture, Solubility in Capmul-MCM): ~45 mg/mL
solubility ([3]; safflower oil, organic solvent or mixture, Solubility in Safflower Oil): < 9 mg/mL
Equilibrium solubility in Olive oil: <0.01 (below detection limit) mgA/ml
Equilibrium solubility in Safflower oil: <0.01 (below detection limit) mgA/ml

CN[C@H]1CC[C@@H](c2ccc(Cl)c(Cl)c2)c2ccccc21 [sertraline]
half-time for absorption [5]: less than 27.7 minutes
Tmax [6]: 6 to 7 h

sertraline acetate
appearance of saturated solution at physiological chloride concentrations [7]: thick pasty solid which does not flow

sertraline lactate
appearance of saturated solution at physiological chloride concentrations [7]: thick pasty solid which does not flow
